# Key:
# [1] = molecular target: purified recombinant human GAC (GLS1) (Homo sapiens (Human), UniProt O94925); assay: GLS1 Enzymatic Activity Assay (dual-coupled enzymatic assay, resorufin/Amplex UltraRed readout); format: biochemical;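 note: glutamate from GAC coupled via glutamate oxidase and peroxidase to resorufin, read as fluorescence (ex 530, em 590 nm) kinetically or at 20 min, four-parameter logistic IC50 fit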
# A549 cells = assay: Proliferation Assay (A549 viability, Cell Titer Fluor, 72 hours); format: cell-based; details: Homo sapiens, A549, 72 h
# In short: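 A549 cells seeded at 1000 cells/well, rested 24 h, then exposed to compound in 0.5% DMSO for 72 h at 37 °C. Viability read by Cell Titer Fluor fluorescence; IC50 from four-parameter logistic fit.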
# Chain of purified recombinant human GAC (GLS1) (O94925 other isoform, or with tags, fused parts or gaps): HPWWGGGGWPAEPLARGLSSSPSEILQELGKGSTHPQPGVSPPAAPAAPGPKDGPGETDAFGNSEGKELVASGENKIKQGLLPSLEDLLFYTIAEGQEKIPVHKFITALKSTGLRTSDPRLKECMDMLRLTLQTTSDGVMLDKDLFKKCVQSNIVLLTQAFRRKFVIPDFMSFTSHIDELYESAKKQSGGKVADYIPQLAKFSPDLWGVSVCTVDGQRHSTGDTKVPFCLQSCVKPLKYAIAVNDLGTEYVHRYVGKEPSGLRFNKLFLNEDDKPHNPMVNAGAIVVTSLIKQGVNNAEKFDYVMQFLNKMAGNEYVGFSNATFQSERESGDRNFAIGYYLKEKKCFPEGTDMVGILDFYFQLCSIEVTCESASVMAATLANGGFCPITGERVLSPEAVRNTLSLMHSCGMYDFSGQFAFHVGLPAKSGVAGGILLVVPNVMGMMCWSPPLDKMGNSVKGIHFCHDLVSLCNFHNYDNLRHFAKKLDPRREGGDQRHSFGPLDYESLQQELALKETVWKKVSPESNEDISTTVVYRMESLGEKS
SMILES,IC50 [1] [nM],EC50 (A549 cells) [nM]
"O=C(NCCC(F)(F)F)c1cn(CC(F)CCc2nnc(C(=O)NCc3cc(C(F)(F)F)ccn3)s2)nn1 (centres unmarked) [Example 510, 5-(3-fluoro-4-{4-[(3,3,3-trifluoropropyl)carbamoyl]-1H-1,2,3-triazol-1-yl}butyl)-N-{[4-(trifluoromethyl)pyridin-2-yl]methyl}-1,3,4-thiadiazole-2-carboxamide]",100 to 500,500 to 5000
"CCOC(=O)NCc1cn(CCCCn2cc(C(=O)NCc3cccc(OC(F)(F)F)c3)nn2)nn1 [Example 54, ethyl N-[(1-{4-[4-({[3-(trifluoromethoxy)phenyl]methyl}carbamoyl)-1H-1,2,3-triazol-1-yl]butyl}-1H-1,2,3-triazol-4-yl)methyl] carbamate]",100 to 500,100 to 500
"C[C@@H](NC(=O)c1cn(CCCCn2cc(C(=O)NCc3cc(C(F)(F)F)ccn3)nn2)nn1)c1ccccc1 [Example 98, 1-[4-(4-{[(1R)-1-phenylethyl]carbamoyl}-1H-1,2,3-triazol-1-yl)butyl]-N-{[4-(trifluoromethyl)pyridin-2-yl]methyl}-1H-1,2,3-triazole-4-carboxamide]",500 to 5000,500 to 5000
"O=C(NCc1cn2ccsc2n1)c1cn(CCC(F)Cn2cc(C(=O)NCc3cc(C(F)(F)F)ccn3)nn2)nn1 (centres unmarked) [Example 155, 1-{3-fluoro-4-[4-({[4-(trifluoromethyl)pyridin-2-yl]methyl}carbamoyl)-1H-1,2,3-triazol-1-yl]butyl}-N-{imidazo[2,1-b][1,3]thiazol-6-ylmethyl}-1H-1,2,3-triazole-4-carboxamide]",< 100,500 to 5000
"O=C(CN1CC(F)C1)Nc1cn(CC(F)CCn2cc(C(=O)NCc3ncccc3F)nn2)nn1 (centres unmarked) [Example 409, 1-(3-fluoro-4-{4-[2-(3-fluoroazetidin-1-yl)acetamido]-1H-1,2,3-triazol-1-yl}butyl)-N-[(3-fluoropyridin-2-yl)methyl]-1H-1,2,3-triazole-4-carboxamide]",500 to 5000,> 5000
"O=C(NCC(F)(F)F)c1cn(CC(F)CCc2nnc(C(=O)NCc3cncc(C(F)(F)F)c3)s2)nn1 (centres unmarked) [Example 506, 5-(3-fluoro-4-{4-[(2,2,2-trifluoroethyl)carbamoyl]-1H-1,2,3-triazol-1-yl}butyl)-N-{[5-(trifluoromethyl)pyridin-3-yl]methyl}-1,3,4-thiadiazole-2-carboxamide]",100 to 500,100 to 500
"O=C(NCc1cccc(C(F)(F)F)c1)c1cn(CCCCn2cc(C(=O)NCC3CCCOC3)nn2)nn1 (centres unmarked) [Example 119, N-(oxan-3-ylmethyl)-1-{4-[4-({[3-(trifluoromethyl)phenyl]methyl}carbamoyl)-1H-1,2,3-triazol-1-yl]butyl}-1H-1,2,3-triazole-4-carboxamide]",100 to 500,100 to 500
"CNC(=O)c1cn(CCCCc2ccc(NC(=O)Cc3cc(-c4ccccc4C(F)(F)F)ccn3)nn2)nn1 [Example 605, N-methyl-1-(4-(6-(2-(4-(2-(trifluoromethyl)phenyl)pyridin-2-yl)acetamido)pyridazin-3-yl)butyl)-1H-1,2,3-triazole-4-carboxamide]",< 100,< 100
"O=C(NCc1ncccc1F)c1cn(CCC(F)Cn2cc(C(=O)NCc3cc(OC(F)(F)F)ccc3F)nn2)nn1 (centres unmarked) [Example 444, 1-{3-fluoro-4-[4-({[2-fluoro-5-(trifluoromethoxy)phenyl]methyl}carbamoyl)-1H-1,2,3-triazol-1-yl]butyl}-N-[(3-fluoropyridin-2-yl)methyl]-1H-1,2,3-triazole-4-carboxamide]",< 100,< 100
"Cc1ccc(CNC(=O)c2cn(CCCCn3cc(NC(=O)CC4CCCCC4)nn3)nn2)cn1 [Example 318, 1-{4-[4-(2-cyclohexylacetamido)-1H-1,2,3-triazol-1-yl]butyl}-N-[(6-methylpyridin-3-yl)methyl]-1H-1,2,3-triazole-4-carboxamide]",< 100,< 100

# Source: patent US10344025B2, “GLS1 inhibitors for treating disease” (Board of Regents, The University of Texas System, priority 2014, dated 2019)
